The text below walks through data of patent US7238697B2, “Pyridylpyrimidines for use as pesticides” (Bayer CropScience AG, priority 2001, dated 2007).

The subject of one experiment is Meloidogyne incognita. Put plainly: Meloidogyne test (gall formation on lettuce roots). The note with it: 336 h, after 14 d, solvent 7 parts DMF, emulsifier 2 parts (Table C-2), read-out: Kill rate in % after 14 d. The class given is in vivo. The method, then: To produce a suitable preparation of active compound, 1 part by weight of active compound is mixed with the stated amounts of solvent and emulsifier, and the concentrate is diluted with water to the desired concentration. Vessels are filled with sand, solution of active compound, Meloidogyne incognita egg/larvae suspension and lettuce seeds. The lettuce seeds germinate and the plants develop. On the roots, galls are formed. After the desired period of time, the nematicidal action is determined in % by the gall formation. 100% means that no galls were found; 0% means that the number of galls on the treated plants corresponds to that of the untreated control.
Consider `CCOC(=O)C(C)OC(=O)CSc1nccc(-c2ccccn2)n1` (centres unmarked) [drawing 409], for which the pest or weed control at 20 ppm was determined as 80%.

Consider `COC(=O)CSc1nc(-c2ccccc2)cc(-c2ccccn2)n1` [drawing 410], for which the pest or weed control at 20 ppm was 100%.

Turning to `CCOC(=O)CSc1nccc(-c2ccc(CC)cn2)n1` [drawing 411], the pest or weed control at 20 ppm is 90%.

With `CCOC(=O)CSc1nccc(-c2ccc(C)cn2)n1` [drawing 412], the pest or weed control at 20 ppm was 90%.

With `CCOC(=O)CSc1nccc(-c2ccc(C(F)(F)F)cn2)n1` [drawing 413], the pest or weed control at 20 ppm is 100%.

Regarding `CC(C)(C)n1nnc(CSc2nccc(-c3ccccn3)n2)n1` [drawing 414], the pest or weed control at 20 ppm worked out at 90%.

The same experiment, now with this note: 336 h, after 14 d, solvent 30 parts DMF, emulsifier 1 part (Table C-1), read-out: Kill rate in % after 14 d.
On to `COCCOC(=O)CSc1nccc(-c2ccccn2)n1` [drawing 403], for which the pest or weed control at 20 ppm was 90%.

As for `CC(C)=NNC(=O)CSc1nccc(-c2ccccn2)n1` [drawing 404], the pest or weed control at 20 ppm was determined as 98%.

As to `COC(=O)CCCSc1nccc(-c2ccccn2)n1` [drawing 405], the pest or weed control at 20 ppm came out at 90%.

For `COC(=O)CSc1nc(-c2ccccn2)c2cc(Cl)ccc2n1` [drawing 406], the pest or weed control at 20 ppm was determined as 98%.

In the case of `COC(=O)CSc1nc(-c2ccccn2)cc(-c2ccccn2)n1` [drawing 407], the pest or weed control at 20 ppm amounted to 95%.

In the case of `CCOC(=O)/C=C/CSc1nccc(-c2ccccn2)n1` [drawing 408], the pest or weed control at 20 ppm was determined as 100%.

Another experiment has as its system thrips (Franklinella occidentalis). The experiment in a line: Franklinella test (cucumber plants sprayed). The format is in vivo. The note with it: 1000 ppm. The method, then: To product a suitable preparation of active compound, 1 part by weight of active compound is mixed with the stated amounts of solvent and emulsifier, and the concentrate is diluted to the desired concentration.
Cucumber plants (Cucumis sativus) which are heavily infested by all stages of thrips (Franklinella occidentalis) are sprayed with a preparation of active compound of the desired concentration.
After the desired period of time, the effect in % is determined. 100% means that all thrips have been killed; 0% means that none of the thrips have been killed.
Consider `COC(=O)CSc1nccc(-c2ccccn2)n1` [drawing 401], for which the “Kill rate in % after 7 d” value amounted to 99%.

Another experiment relates to larvae of the mustard beetle (Phaedon cochleariae). Put plainly: Phaedon larvae test (cabbage leaves dipped). The format is in vivo. The note with it: 500 ppm, solvent 7 parts DMF, emulsifier 2 parts (Table E-2). The method, then: To produce a suitable preparation of active compound, 1 part by weight of active compound is mixed with the stated amounts of solvent and emulsifier, and the concentrate is diluted with emulsifier-containing water to the desired concentration. Cabbage leaves (Brassica oleracea) are treated by being dipped into the preparation of active compound of the desired concentration and are populated with larvae of the mustard beetle (Phaedon cochleariae) while the leaves are still moist. After the desired period of time, the kill in % is determined. 100% means that all beetle larvae have been killed; 0% means that none of the beetle larvae have been killed.
Consider `CCOC(=O)CSc1nccc(-c2ccc(C(F)(F)F)cn2)n1` [drawing 442], for which the “Kill rate in % after 7 d” value turned out to be 100%.

For `CCOC(=O)CSc1nccc(-c2ccc(Cl)cn2)n1` [drawing 443], the “Kill rate in % after 7 d” value is listed as 100%.

Take `CC(C)(C)n1nnc(CSc2nccc(-c3ccccn3)n2)n1` [drawing 444]: the “Kill rate in % after 7 d” value came out at 100%.

The same experiment, now with this note: 1000 ppm, solvent 30 parts DMF, emulsifier 1 part (Table E-1).
Regarding `O=C(CSc1nccc(-c2ccccn2)n1)N/N=C/c1ccc([N+](=O)[O-])cc1` [drawing 441], the “Kill rate in % after 7 d” value turned out to be 100%.

For a further experiment, the system named is caterpillars of the army worm (Spodoptera frugiperda). The experiment in a line: Spodoptera frugiperda test (cabbage leaves dipped). The format is in vivo. The note with it: 500 ppm, solvent 7 parts DMF, emulsifier 2 parts. As for the experimental part:
To produce a suitable preparation of active compound, 1 part by weight of active compound is mixed with the stated amounts of solvent and emulsifier, and the concentrate is diluted with emulsifier-containing water to the desired concentration. Cabbage leaves (Brassica oleracea) are treated by being dipped into the preparation of active compound of the desired concentrated and are populated with caterpillars of the army worm (Spodoptera frugiperda) while the leaves are still moist. After the desired period of time, the kill in % is determined. 100% means that all caterpillars have been killed; 0% means that none of the caterpillars has been killed.
Consider `CCOC(=O)CSc1nc(C)cc(-c2ccccn2)n1` [drawing 445], for which the “Kill rate in % after 7 d” value came to 100%.

For the compound `CCOC(=O)CSc1nccc(-c2ccc(C(F)(F)F)cn2)n1` [drawing 446], the “Kill rate in % after 7 d” value is 100%.

As for `CC(C)(C)n1nnc(CSc2nccc(-c3ccccn3)n2)n1` [drawing 447], the “Kill rate in % after 7 d” value amounted to 100%.

The subject of the next experiment is cotton aphid (Aphis gossypii). Put plainly: Aphis gossypii test (cotton leaves dipped). The format is in vivo. The note with it: 200 ppm. The method, then:
To produce a suitable preparation of active compound, 1 part by weight of active compound is mixed with the stated amounts of solvent and emulsifier, and the concentrate is diluted with emulsifier-containing water to the desired concentration. Cotton leaves (Gossypium hirsutum) which are heavily infested by the cotton aphid (Aphis gossypii) are treated by being dipped into the preparation of active compound of the desired concentration. After the desired period of time, the kill in % is determined. 100% means that all aphids have been killed; 0% means that none of the aphids have been killed.
Take `COC(=O)CSc1nccc(-c2ccccn2)n1` [drawing 398]: the “Kill rate in % after 6 d” value is 85%.

Turning to `CCCOC(=O)CSc1nccc(-c2ccccn2)n1` [drawing 399], the “Kill rate in % after 6 d” value stood at 85%.

With `O=C(CSc1nccc(-c2ccccn2)n1)OC1CCCCC1` [drawing 400], the “Kill rate in % after 6 d” value is listed as 90%.
